# PubChem BioAssay (NCI)
#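 The compound was tested at five concentrations on cells cultured in 96-well plates, with a 48-hour exposure period. TGI is the concentration that stops growth completely.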
# Tests used:
# Assay in all cases: NCI tumour cell line growth inhibition, 48 h
# [1] = system: 786-0 renal
# [2] = system: A498 renal
# [3] = system: A549 NSCLC
# [4] = system: ACHN renal
# [5] = system: BT-549 breast
# [6] = system: CAKI-1 renal
# [7] = system: CCRF-CEM leukemia
# [8] = system: COLO 205 colon
# [9] = system: DU-145 prostate
# [10] = system: EKVX NSCLC
# [11] = system: HCC-2998 colon
# [12] = system: HCT-116 colon
# [13] = system: HCT-15 colon
# [14] = system: HL-60(TB) leukemia
# [15] = system: HOP-62 NSCLC
# [16] = system: HOP-92 NSCLC
# [17] = system: HS 578T breast
# [18] = system: HT29 colon
# [19] = system: IGROV1 ovarian
# [20] = system: K-562 leukemia
# [21] = system: KM12 colon
# [22] = system: LOX IMVI melanoma
# [23] = system: M14 melanoma
# [24] = system: MALME-3M melanoma
# [25] = system: MCF7 breast
# [26] = system: MDA-MB-231 breast
# [27] = system: MDA-MB-435
# [28] = system: MDA-N
# [29] = system: MOLT-4 leukemia
# [30] = system: NCI-H226 lung
# [31] = system: NCI-H23 lung
# [32] = system: NCI-H460 lung
# [33] = system: NCI-H522 lung
# [34] = system: NCI/ADR-RES ovarian
# [35] = system: OVCAR-3 ovarian
# [36] = system: OVCAR-4 ovarian
# [37] = system: OVCAR-5 ovarian
# [38] = system: PC-3 prostate
# [39] = system: RPMI-8226 leukemia
# [40] = system: RXF 393 renal
# [41] = system: SF-268 CNS
# [42] = system: SF-539 CNS
# [43] = system: SK-MEL-28 melanoma
# [44] = system: SK-MEL-5 melanoma
# [45] = system: SK-OV-3 ovarian
# [46] = system: SNB-75 CNS
# [47] = system: SR leukemia
# [48] = system: SW-620 colon
# [49] = system: T-47D breast
# [50] = system: TK-10 renal
# [51] = system: U251 CNS
# [52] = system: UACC-62 melanoma
# [53] = system: UO-31 renal
# [54] = system: OVCAR-8 ovarian
# [55] = system: SF-295 CNS
# [56] = system: SN12C renal
# [57] = system: SNB-19 CNS
# [58] = system: UACC-257 melanoma
# [59] = system: SK-MEL-2 melanoma
compound,measurement,setting,value
CC1(C)C2CCC3=C(CCC4(C)C5C[C@](C)(C(=O)O)CC[C@]5(C)CC[C@]34C)[C@@]2(C)CC[C@@H]1O (stereo not given in full),TGI,[1],29.3 µM
same,TGI,[2],44.7 µM
same,TGI,[3],26.6 µM
same,TGI,[4],29.9 µM
same,TGI,[5],39.1 µM
same,TGI,[6],37.7 µM
same,TGI,[7],36.3 µM
same,TGI,[8],> 100 µM
same,TGI,[9],34.5 µM
same,TGI,[10],53 µM
same,TGI,[11],> 100 µM
same,TGI,[12],30.2 µM
same,TGI,[13],37.7 µM
same,TGI,[14],50.4 µM
same,TGI,[15],31.3 µM
same,TGI,[16],38.7 µM
same,TGI,[17],59.1 µM
same,TGI,[18],33 µM
same,TGI,[19],49.4 µM
same,TGI,[20],49 µM
same,TGI,[21],33.6 µM
same,TGI,[22],31.2 µM
same,TGI,[23],31.8 µM
same,TGI,[24],31.5 µM
same,TGI,[25],40.4 µM
same,TGI,[26],33.8 µM
same,TGI,[27],63 µM
same,TGI,[28],37.8 µM
same,TGI,[29],48.9 µM
same,TGI,[30],67.9 µM
same,TGI,[31],43.2 µM
same,TGI,[32],30 µM
same,TGI,[33],40.8 µM
same,TGI,[34],36 µM
same,TGI,[35],29.8 µM
same,TGI,[36],32.9 µM
same,TGI,[37],> 100 µM
same,TGI,[38],29.1 µM
same,TGI,[39],51.1 µM
same,TGI,[40],41.3 µM
same,TGI,[41],> 100 µM
same,TGI,[42],> 100 µM
same,TGI,[43],33.7 µM
same,TGI,[44],68.7 µM
same,TGI,[45],35.7 µM
same,TGI,[46],34.4 µM
same,TGI,[47],> 100 µM
same,TGI,[48],32.3 µM
same,TGI,[49],38.4 µM
same,TGI,[50],32.2 µM
same,TGI,[51],27.1 µM
same,TGI,[52],37.6 µM
same,TGI,[53],> 100 µM
CSc1nc(C)c2c(n1)SCC2,TGI,[1],> 10 µM
same,TGI,[2],> 10 µM
same,TGI,[3],> 10 µM
same,TGI,[4],> 10 µM
same,TGI,[5],> 10 µM
same,TGI,[6],> 10 µM
same,TGI,[7],> 10 µM
same,TGI,[8],> 10 µM
same,TGI,[9],> 10 µM
same,TGI,[10],> 10 µM
same,TGI,[12],> 10 µM
same,TGI,[13],> 10 µM
same,TGI,[14],> 10 µM
same,TGI,[15],> 10 µM
same,TGI,[16],> 10 µM
same,TGI,[17],> 10 µM
same,TGI,[18],> 10 µM
same,TGI,[19],> 10 µM
same,TGI,[20],> 10 µM
same,TGI,[21],> 10 µM
same,TGI,[22],> 10 µM
same,TGI,[23],> 10 µM
same,TGI,[24],> 10 µM
same,TGI,[25],> 10 µM
same,TGI,[26],> 10 µM
same,TGI,[27],> 10 µM
same,TGI,[28],> 10 µM
same,TGI,[29],> 10 µM
same,TGI,[30],> 10 µM
same,TGI,[31],> 10 µM
same,TGI,[32],> 10 µM
same,TGI,[34],> 10 µM
same,TGI,[35],> 10 µM
same,TGI,[36],> 10 µM
same,TGI,[37],> 10 µM
same,TGI,[54],> 10 µM
same,TGI,[38],> 10 µM
same,TGI,[39],> 10 µM
same,TGI,[40],> 10 µM
same,TGI,[41],> 10 µM
same,TGI,[55],> 10 µM
same,TGI,[42],> 10 µM
same,TGI,[43],> 10 µM
same,TGI,[44],> 10 µM
same,TGI,[45],> 10 µM
same,TGI,[56],> 10 µM
same,TGI,[57],> 10 µM
same,TGI,[46],> 10 µM
same,TGI,[47],> 10 µM
same,TGI,[48],> 10 µM
same,TGI,[49],> 10 µM
same,TGI,[50],> 10 µM
same,TGI,[51],> 10 µM
same,TGI,[58],> 10 µM
same,TGI,[52],> 10 µM
same,TGI,[53],> 10 µM
COc1cc(/C=C(\C#N)c2nc3ccccc3o2)ccc1O,TGI,[1],66.4 µM
same,TGI,[2],34.8 µM
same,TGI,[3],43.4 µM
same,TGI,[4],46.9 µM
same,TGI,[5],34.5 µM
same,TGI,[6],45.9 µM
same,TGI,[7],> 100 µM
same,TGI,[8],33 µM
same,TGI,[9],65.1 µM
same,TGI,[10],49.6 µM
same,TGI,[11],41.9 µM
same,TGI,[12],34.3 µM
same,TGI,[13],42.6 µM
same,TGI,[14],55.3 µM
same,TGI,[15],52.8 µM
same,TGI,[16],50.8 µM
same,TGI,[17],75.2 µM
same,TGI,[18],48.1 µM
same,TGI,[19],38.1 µM
same,TGI,[20],> 100 µM
same,TGI,[21],37.7 µM
same,TGI,[23],54.6 µM
same,TGI,[24],56.3 µM
same,TGI,[25],> 100 µM
same,TGI,[26],68.5 µM
same,TGI,[27],41.6 µM
same,TGI,[28],> 100 µM
same,TGI,[29],> 100 µM
same,TGI,[30],49 µM
same,TGI,[31],70 µM
same,TGI,[32],48.4 µM
same,TGI,[33],27.8 µM
same,TGI,[34],64.3 µM
same,TGI,[35],40.9 µM
same,TGI,[36],40.7 µM
same,TGI,[37],61.2 µM
same,TGI,[54],50 µM
same,TGI,[38],66.4 µM
same,TGI,[39],63.6 µM
same,TGI,[40],> 100 µM
same,TGI,[41],50.7 µM
same,TGI,[55],36.8 µM
same,TGI,[42],28.5 µM
same,TGI,[59],47.3 µM
same,TGI,[43],58.1 µM
same,TGI,[44],36.3 µM
same,TGI,[45],36.7 µM
same,TGI,[56],> 100 µM
same,TGI,[57],> 100 µM
same,TGI,[47],> 100 µM
same,TGI,[49],46.9 µM
same,TGI,[50],75 µM
same,TGI,[51],36.2 µM
same,TGI,[58],> 100 µM
same,TGI,[52],40.5 µM
same,TGI,[53],85.9 µM
CN1CCN(CCCN)CC1,TGI,[1],> 100 µM
same,TGI,[2],> 100 µM
same,TGI,[3],> 100 µM
same,TGI,[4],> 100 µM
same,TGI,[5],> 100 µM
same,TGI,[6],> 100 µM
same,TGI,[7],> 100 µM
same,TGI,[8],> 100 µM
same,TGI,[9],> 100 µM
same,TGI,[10],> 100 µM
same,TGI,[12],> 100 µM
same,TGI,[13],> 100 µM
same,TGI,[14],> 100 µM
same,TGI,[15],> 100 µM
same,TGI,[17],> 100 µM
same,TGI,[18],> 100 µM
same,TGI,[19],> 100 µM
same,TGI,[20],> 100 µM
same,TGI,[21],> 100 µM
same,TGI,[22],> 100 µM
same,TGI,[23],> 100 µM
same,TGI,[24],> 100 µM
same,TGI,[25],> 100 µM
same,TGI,[26],> 100 µM
same,TGI,[27],> 100 µM
same,TGI,[28],> 100 µM
same,TGI,[29],> 100 µM
same,TGI,[30],> 100 µM
same,TGI,[31],> 100 µM
same,TGI,[33],> 100 µM
same,TGI,[34],> 100 µM
same,TGI,[35],> 100 µM
same,TGI,[36],> 100 µM
same,TGI,[37],> 100 µM
same,TGI,[54],> 100 µM
same,TGI,[38],> 100 µM
same,TGI,[39],> 100 µM
same,TGI,[40],> 100 µM
same,TGI,[41],> 100 µM
same,TGI,[55],> 100 µM
same,TGI,[59],> 100 µM
same,TGI,[43],> 100 µM
same,TGI,[44],> 100 µM
same,TGI,[45],> 100 µM
same,TGI,[56],> 100 µM
same,TGI,[57],> 100 µM
same,TGI,[46],> 100 µM
same,TGI,[47],> 100 µM
same,TGI,[48],> 100 µM
same,TGI,[49],> 100 µM
same,TGI,[50],> 100 µM
same,TGI,[51],> 100 µM
same,TGI,[58],> 100 µM
same,TGI,[52],> 100 µM
same,TGI,[53],> 100 µM
